Data on five molecules can be found in patent publication US7785639B2, “Composition for treating cancer cells and preparation method for the same” (Kaohsiung Medical University, priority 2005, dated 2010).

Structures are written as SMILES. Values after ≈ are worked out from the molar mass of the structure shown.

What is called IC50 is the concentration that inhibits the measured activity by half.

Series [1] concerns five human cancer cell lines.
Another series relates to A549. Nature of the series: MTT cytotoxic testing, A549. The format is cell-based. To be noted: average ± standard deviation (n = 2); for IC50 A549: human lung cancer cell line; for IC50: A549, human lung cancer cell line.
Another series relates to Hep G2. Nature of the series: MTT cytotoxic testing, Hep G2. The format is cell-based. The following applies: average ± standard deviation (n = 2); for IC50 Hep G2: human liver cancer cell line; for IC50: HepG2, human liver cancer cell line. (In general: Tetrazolium assays rely on reduction of a dye to a coloured formazan, in cell work by metabolically active cells.)
In the next series the test system is Hep 3B. Nature of the series: MTT cytotoxic testing, Hep 3B. In kind it is cell-based. To be noted: human liver cancer cell line, average ± standard deviation (n = 2); for IC50: Hep3B.
In a further series the test system is MDA-MB-231. Nature of the series: MTT cytotoxic testing, MDA-MB-231. In kind it is cell-based. To be noted: average ± standard deviation (n = 2); for IC50 MDA-MB-231: human breast cancer cell line; for IC50: MDA-MB-231, human breast cancer cell line.
A further series deals with MCF-7. Nature of the series: MTT cytotoxic testing, MCF-7. In kind it is cell-based. To be noted: average ± standard deviation (n = 2); for IC50 MCF-7: human breast cancer cell line; for IC50: MCF7, human breast cancer cell line.
Series [2] has as its system MCF-10A.
Series [3] relates to MCF-10A. Nature of the series: cells. To be noted: Homo sapiens, read-out: IC50 MCF-10A.

For `COC1CC(=O)C=CC1(O)c1cc(=O)c2c(O)cc(O)cc2o1` (stereo not drawn) [Compound B, 5′,6′-Dihydro-6′-methoxy-protoapigenone], the “cytotoxic activities on cancer cells” value in series [1] was “good cytotoxic activities”. For the same molecule, in the series on A549, the “IC50 A549” value was determined as 13.30 ± 0.23 µg/mL (≈ 41.8 µM). Further, the “IC50 Hep G2” value in the series on Hep G2 was determined as 5.88 ± 0.47 µg/mL (≈ 18.5 µM). The “IC50 Hep 3B” value in the series on Hep 3B was 1.74 ± 0.08 µg/mL (≈ 5.47 µM). The “IC50 MDA-MB-231” value in the series with MDA-MB-231 is 1.30 ± 0.10 µg/mL (≈ 4.08 µM). Further, in the series on MCF-7, the “IC50 MCF-7” value was 5.92 ± 0.29 µg/mL (≈ 18.6 µM).

`COC1(OC)CCC(O)(c2cc(=O)c3c(O)cc(O)cc3o2)CC1` [Compound D, 5,7-dihydroxy-2-(1-hydroxy-4,4-dimethoxy-cyclohexyl)-chromen-4-one]: the IC50 in the series with A549, in the series on Hep G2, in the series on Hep 3B, in the series with MDA-MB-231 and in the series with MCF-7 was above 20 µg/mL in each case.

Turning to `COc1cccc2c1C(=O)c1c(O)c3c(c(O)c1C2=O)C[C@@](O)(C(=O)CO)C[C@@H]3O[C@H]1C[C@H](N)[C@H](O)[C@H](C)O1` [Compound E, Doxorubicin, reference compound], the IC50 worked out at 0.36 ± 0.04 µg/mL (≈ 0.662 µM) in the series on A549; 0.15 µg/mL (≈ 0.276 µM) in the series on Hep G2; 0.26 ± 0.06 µg/mL (≈ 0.478 µM) in the series with Hep 3B; 0.31 ± 0.02 µg/mL (≈ 0.57 µM) in the series on MDA-MB-231; 0.32 ± 0.08 µg/mL (≈ 0.589 µM) with MCF-7.

With `O=c1cc(C2(O)C=CC(O)C=C2)oc2cc(O)cc(O)c12` (stereo not drawn) [Compound C, Protoapigenin], in series [1], the “cytotoxic activities on cancer cells” value is given as “good cytotoxic activities”. The “IC50 A549” value in the series on A549 was 18.84 ± 0.60 µg/mL (≈ 65.4 µM). In addition, the “IC50 Hep G2” value in the series on Hep G2 was determined as 1.60 ± 0.33 µg/mL (≈ 5.55 µM). Also, the “IC50 Hep 3B” value in the series with Hep 3B is 20.00 ± 0.58 µg/mL (≈ 69.4 µM). For the same molecule, the “IC50 MDA-MB-231” value in the series on MDA-MB-231 is “— (Without the cytotoxical activity in the concentration of 20 μg/ml)”. The “IC50 MCF-7” value with MCF-7 was “— (Without the cytotoxical activity in the concentration of 20 μg/ml)”.

Turning to `O=C1C=CC(O)(c2cc(=O)c3c(O)cc(O)cc3o2)C=C1` [Compound A, Protoapigenone], the “cytotoxic activities on cancer cells” value in series [1] is “good cytotoxic activities”. Further, the IC50 came out at 3.88 ± 0.02 µg/mL (≈ 13.6 µM) with A549; 1.6 ± 0.33 µg/mL (≈ 5.59 µM) in the series on Hep G2; 0.23 ± 0.01 µg/mL (≈ 0.804 µM) in the series with Hep 3B; 0.27 ± 0.02 µg/mL (≈ 0.943 µM) with MDA-MB-231; 0.78 ± 0.02 µg/mL (≈ 2.72 µM) in the series on MCF-7; 7.9 ± 1.3 µg/mL (≈ 27.6 µM) in the series on MCF-10A [3]. In addition, the “cytotoxicity to normal human breast epidermal cells” value in the series with MCF-10A [2] was “weak cytotoxicity”.
